The results in this text go back to BindingDB's records for doi:10.7270/Q23R0R8T (Burnham Center For Chemical Genomics, 2010).

In this assay the target is Nucleotide-binding oligomerization domain-containing protein 2 (Homo sapiens, UniProt Q9HC29). Kind of assay: NOD2 signaling inhibitors in MDP-stimulated cells, cell-based, uHTS, luminescence (AID 2001).
Sequence of Nucleotide-binding oligomerization domain-containing protein 2 (Q9HC29 whole entry, the tested form may be a part): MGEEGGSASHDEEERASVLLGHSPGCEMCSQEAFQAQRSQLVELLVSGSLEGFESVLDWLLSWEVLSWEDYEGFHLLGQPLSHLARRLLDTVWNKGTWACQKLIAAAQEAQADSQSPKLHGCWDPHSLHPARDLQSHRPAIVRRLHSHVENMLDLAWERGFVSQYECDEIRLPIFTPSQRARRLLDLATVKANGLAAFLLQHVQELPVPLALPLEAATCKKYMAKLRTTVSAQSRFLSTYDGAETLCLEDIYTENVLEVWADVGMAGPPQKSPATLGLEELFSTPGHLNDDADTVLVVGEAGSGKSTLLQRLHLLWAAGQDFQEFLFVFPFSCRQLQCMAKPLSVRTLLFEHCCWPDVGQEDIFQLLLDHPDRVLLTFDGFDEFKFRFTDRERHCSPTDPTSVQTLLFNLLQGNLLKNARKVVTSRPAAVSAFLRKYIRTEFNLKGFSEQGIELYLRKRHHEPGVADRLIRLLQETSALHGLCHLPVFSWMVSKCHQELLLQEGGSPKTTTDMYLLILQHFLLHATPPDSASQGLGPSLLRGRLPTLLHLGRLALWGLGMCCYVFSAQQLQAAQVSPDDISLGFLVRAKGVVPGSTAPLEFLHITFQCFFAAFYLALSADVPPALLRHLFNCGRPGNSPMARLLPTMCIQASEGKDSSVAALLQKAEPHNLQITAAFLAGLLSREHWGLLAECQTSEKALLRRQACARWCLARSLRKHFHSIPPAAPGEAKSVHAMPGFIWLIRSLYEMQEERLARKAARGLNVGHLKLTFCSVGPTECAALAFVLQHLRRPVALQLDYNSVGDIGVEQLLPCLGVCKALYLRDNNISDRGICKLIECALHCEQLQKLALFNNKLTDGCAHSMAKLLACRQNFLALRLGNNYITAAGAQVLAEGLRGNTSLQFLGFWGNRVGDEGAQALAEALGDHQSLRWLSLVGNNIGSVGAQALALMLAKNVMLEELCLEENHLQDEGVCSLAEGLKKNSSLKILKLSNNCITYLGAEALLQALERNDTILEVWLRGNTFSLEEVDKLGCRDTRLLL

Molecule `Cc1cc(CN=Nc2ncnc(N)c2[N+](=O)[O-])c(C)n1-c1ccccc1` had an IC50 of 6.1 µM.
As to `Cc1cc(SCC(=O)OCC(=O)C(C#N)c2nc3ccccc3[nH]2)c(C)cc1Br` (stereo unspecified), the IC50 was determined as 5.41 µM. The IC50 values of the last two molecules are within 1.5-fold of each other.
As for `O=C1C(=O)N(c2nccs2)C(c2ccccc2)C1C(=O)c1ccc2c(c1)OCCO2` (stereo unspecified), the IC50 amounted to 18.6 µM.
With `CCCOC1=CC(=O)C(C=NNC(=S)Nc2ccccc2[N+](=O)[O-])C=C1` (stereo unspecified) [1-(2-nitrophenyl)-3-[[(E)-(6-oxo-4-propoxy-1-cyclohexa-2,4-dienylidene)methyl]amino]thiourea] the figure was 0.233 µM; with `C=CCN1C(=O)C(=NNC(=S)Nc2cccc(C)c2)c2ccccc21` [1-(3-methylphenyl)-3-[(Z)-(2-oxidanylidene-1-prop-2-enyl-indol-3-ylidene)amino]thiourea], 1.18 µM.
In the case of `CCCCCCC1=Cc2c/c(=C3/NN=C(c4ccccc4OC)O3)c(=O)oc2=CC1=O` [6-Hexyl-7-hydroxy-3-[5-(2-methoxy-phenyl)-[1,3,4]oxadiazol-2-yl]-chromen-2-one], the IC50 is 8.48 µM.
`CCCCCCC1=Cc2c/c(=C3/NN/C(=C4/C=CC=CC4=O)O3)c(=O)oc2=CC1=O` [(3E)-6-hexyl-3-[(5E)-5-(6-oxocyclohexa-2,4-dien-1-ylidene)-1,3,4-oxadiazolidin-2-ylidene]chromene-2,7-dione] showed an IC50 of 4.36 µM.
With `Cc1ccc(O)c(/N=C/C2=CC(Cc3ccccc3)C=C([N+](=O)[O-])C2=O)c1` (stereo unspecified) [(6E)-6-[[(5-methyl-2-oxidanyl-phenyl)amino]methylidene]-2-nitro-4-(phenylmethyl)cyclohexa-2,4-dien-1-one] the figure was 12.4 µM.
Regarding `Cc1ccc(C)c(SCC(=O)OCC(=O)C(C#N)c2nc3ccccc3[nH]2)c1` (stereo unspecified) [MLS000392255], the IC50 is 4.92 µM.
`Cc1cc(CN=Nc2nc(N)ncc2[N+](=O)[O-])c(C)n1-c1ccccc1F` [MLS000392273] yielded an IC50 of 6.02 µM.
In the case of `COc1ccc(NS(=O)(=O)c2ccc(N=NC(C)c3ccncc3)c([N+](=O)[O-])c2)cc1` (stereo unspecified) [MLS000393523], the IC50 came to 2.11 µM.
For the molecule `C=CCN1C(=O)C(=NNC(=S)Nc2cccc(OC)c2)c2ccccc21` [SMR000132469], the IC50 was 1.76 µM.
`CCOc1ccc(-c2csc(/C(C#N)=C/C3C=CC(=O)C([N+](=O)[O-])=C3)n2)cc1` (stereo unspecified) [SMR000237723] yielded a concentration for half-maximal inhibition (IC50) of 2.58 µM. The IC50 values of the last two molecules are within 1.5-fold of each other.
As for `CN1C(=O)C(=NNC(=S)Nc2ccccc2F)c2cc(S(=O)(=O)N3CCOCC3)ccc21` [SMR000314843], the IC50 was 9.77 µM.
With `Cc1cc(N=NCc2ccccc2[N+](=O)[O-])nc(-n2nc(C)cc2C)n1` [SMR000426946] the figure was 6.55 µM; with `COc1cc(CN=Nc2nc3c(c(=O)n(C)c(=O)n3C)n2Cc2ccccc2)ccc1OC(=O)c1ccco1` [[4-[[(7-benzyl-1,3-dimethyl-2,6-dioxopurin-8-yl)hydrazinylidene]methyl]-2-methoxyphenyl] furan-2-carboxylate], 5.98 µM.
